Data on one compound can be found in publication PMC8876525 (Viruses, 2022).

A short description of data set [1]: CCK-8 cytotoxicity assay in HepAD38 cells. The format is cell-based, Human. The conditions noted are these: human, 6 days.
Data set [2] has as its system HepAD38 cells. Description: CCK-8 cytotoxicity assay in HepAD38 cells. The format is cell-based, Human. Background: Formazan colour is commonly taken as a measure of viable cells.
Data set [3] addresses HBV capsid (Hepatitis B virus genotype D subtype ayw, UniProt P03146). Briefly: Intracellular HBV capsid formation. The format is cell-based. The conditions noted are these: HepAD38 or HepG2-HBV1.3 cells, compounds 10 μM, ETV 25 nM, BAY 41-4109 2 μM, 6 days.
Data set [4] has as its system HBsAg. Briefly: Secreted HBsAg ELISA. The format is cell-based, HBV. The conditions noted are these: 6 days, ETV 25 nM, BAY 41-4109 2 μM.
Data set [5] concerns HBV core DNA. Briefly: Intracellular HBV core DNA (qPCR) and replicative intermediates (Southern blot). The format is cell-based. Particulars: 6 days, qPCR.
Data set [6] deals with HBV encapsidated pgRNA. Description: Encapsidated pgRNA and total HBV RNAs (Northern blot). The format is cell-based. The conditions noted are these: HepAD38 cells, BAY 41-4109 2 μM.
In data set [7] the test system is HBV. Briefly: HepG2-NTCP de novo HBV infection model (viral markers, cccDNA Taq-Man qPCR). The format is cell-based. Particulars: HepG2-NTCP cells, 5 μM.
Data set [8] deals with HBc (Hepatitis B virus genotype D subtype ayw, UniProt P03146). Description: Immunofluorescence of HBV core protein in HepAD38 cells. The format is cell-based. Particulars: 3 days, BAY 41-4109 2 μM.
HBc, sequence (P03146 whole entry): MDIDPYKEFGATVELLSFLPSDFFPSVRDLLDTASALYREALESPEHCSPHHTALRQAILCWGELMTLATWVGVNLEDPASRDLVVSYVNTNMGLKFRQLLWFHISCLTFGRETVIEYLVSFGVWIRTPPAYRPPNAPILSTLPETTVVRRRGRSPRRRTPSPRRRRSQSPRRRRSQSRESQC
The subject of data set [9] is wild-type HBV. Description: Drug susceptibility assay, HepG2 transfected with HBV1.1-WT. The format is cell-based. The conditions noted are these: Hepatitis B virus, 144 h; wild-type HBV in HepG2, secreted HBV DNA, 6 days; read-out: viral replication EC50.
Data set [10] concerns ETV-resistant mutant (rtL180M/S202G/M204V) HBV. Briefly: Drug susceptibility assay, HepG2 transfected with ETV-resistant mutant. The format is cell-based. The conditions noted are these: Hepatitis B virus, HepG2, 144 h, read-out: viral replication EC50.
In data set [11] the test system is HBeAg. Description: Secreted HBeAg ELISA. The format is cell-based, HBV. The conditions noted are these: 6 days. On the technique in general: ELISA stands for enzyme-linked immunosorbent assay.
Data set [12] relates to HBV. Briefly: Secreted HBV DNA in HepG2-HBV1.3 culture supernatant (RT-qPCR). The format is cell-based. Particulars: Hepatitis B virus, 144 h; HepG2-HBV1.3 cells, 6 days. In general terms: Real-time PCR tracks product formation cycle by cycle.
Data set [13] deals with Cp149 protein (Hepatitis B virus genotype D subtype ayw, UniProt P03146). Description: Cp149 capsid assembly in vitro, transmission electron microscopy. The format is biochemical, HBV. Particulars: Cp149 5 μM dimer, 300 mM NaCl, 150 mM HEPES pH 7.5; BAY 41-4109 5 μM 3 days, C-39 20 μM 3 and 7 days.
Cp149 protein, sequence (P03146 1-149): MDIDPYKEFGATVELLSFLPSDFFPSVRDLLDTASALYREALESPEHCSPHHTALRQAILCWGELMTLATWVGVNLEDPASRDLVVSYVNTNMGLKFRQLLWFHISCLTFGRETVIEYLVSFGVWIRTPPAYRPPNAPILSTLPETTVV
Data set [14] is described as follows: CCK-8 cytotoxicity assay in HepG2-HBV1.3 (HepG2) cells. The format is cell-based. Particulars: human.
In data set [15] the test system is HBV. Briefly: Secreted HBV DNA in HepAD38 culture supernatant (RT-qPCR). The format is cell-based. The conditions noted are these: HepAD38 cells.
For data set [16], the system named is HBV 3.5 kb RNA. Description: Intracellular HBV 3.5 kb RNA (RT-qPCR). The format is cell-based. Particulars: 6 days.

HBV capsid, sequence (P03146 whole entry): as the sequence (P03146 whole entry) above

With `CCOC(=O)c1c(S(=O)(=O)N2CCCC(C(=O)Nc3ccc(F)c(Cl)c3)C2)c(C)n(C)c1C` (stereo not drawn) [Compound C-39], the CC50 at 6 days in [1] and in data set [14] was more than 100 µM each time. For the same compound, in data set [2], the Cytotoxicity in words entry is “no obvious toxicity”. Besides, the “Effect on intracellular HBV capsid formation at single concentration” value in [3] was “dramatically inhibited capsid formation”. Besides, the “Effect on secreted HBsAg” value in [4] (HepAD38 cells) and in [4] (HepG2-HBV1.3 cells) was “no impact on HBsAg production” each time. Moreover, the “Effect on intracellular HBV core DNA” value in data set [5] (HepAD38 cells) and in data set [5] (HepG2-HBV1.3 cells) was “markedly reduced” each time. Further, the “Effect on intracellular total HBV RNAs” value in data set [6] (C-18, C-39 5 μM) is recorded as “slight decrease”. Moreover, the “Effect on HBV encapsidated pgRNA” value in data set [6] (C-18, C-39, C-19 5 μM, ETV 25 nM) is listed as “markedly downregulated”. Further, in [7], the “Effect on cccDNA formation, treatment together with viral inoculum (day 0)” value is on record as “prevented the formation of cccDNA during the early postentry step”. In addition, the “Effect on pre-established cccDNA, treatment 4 days after infection (day 4)” value in [7] is “minor effect”. Moreover, the “HBc localisation / aggregation” value in data set [8] (C-18 and C-39 5 μM) is “induced punctate HBc aggregation within the nucleus”. Also, in data set [8] (C-39 5 μM), the “HBc level by immunofluorescence” value is given as “significantly decreased the HBc level”. The EC50 (commonly the concentration giving half of the maximal effect) in data set [9] stood at 78 nM; in data set [10], 84 nM; in data set [12], 75 ± 16 nM; in data set [15] (Hepatitis B virus, 144 h, 6 days, read-out: EC50 (secreted HBV DNA)), 56 ± 13 nM. The “Effect on secreted HBeAg” value in [11] (HepAD38 cells) and in data set [11] (HepG2-HBV1.3 cells) was “markedly reduced” in each case. In addition, the “Morphology of assembled Cp149 particles (TEM)” value in data set [13] is “effectively accelerated the formation of capsid-like particles with time”. Further, the “HBV DNA secretion and intracellular HBV DNA in combination with ETV vs ETV alone” value in data set [15] (5 nM ETV together with C-39 0-10 μM) is “further inhibition”. The “Effect on intracellular HBV 3.5 kb RNA” value in data set [16] (HepAD38 cells) and in data set [16] (HepG2-HBV1.3 cells) was “markedly reduced” in each case.
